Common to all, as to type: biochemical
Test [1] concerns the target T1, VEGF-R (vascular endothelial growth factor receptor-2) (Rattus norvegicus, UniProt O08775).
T1 construct: polyhistidine (6xHIS) (N)
The test is described as follows: VEGF-R Screening Assay. The following applies: Table 1; read-out: VEGF-R IC50. On the procedure: (§1) 70 μL of the kinase reaction mixture was dispensed into the well of a streptavidin coated FlashPlate™ (Cat. # SMP103, NEN, Boston, Mass.). Then 1 μL of test compound stock in 100% DMSO was added to the wells resulting in a final concentration of 1% DMSO in the reaction with a 100 μL final reaction volume. Next, soluble rat tyrosine kinase containing an N-terminal 6×HIS tag was diluted in 50 mM Tris-HCl pH=8.0, 0.1% BSA at a concentration of 5 ng per μL and 30 μL (150 ng enzyme per test well) was added to each well to initiate the reaction. The reaction was incubated for one hour at 30° C. At the end of the 1-hour incubation, the reaction was terminated by aspirating the reaction mixture from the plate and washing the wells twice with PBS containing 100 mM EDTA. The PLC1 biotinylated peptide substrate became immobilized on the Flashplate™ and the incorporation of ^33P-γ-ATP was measured by reading the plate on a scintillation counter. Inhibition of the enzymatic activity of the VEGF-R was measured by observing a reduced amount of ^33P-γ-ATP incorporated into the immobilized peptide.
(§2) Assays to test compound inhibition of other kinases were preformed using methods that measure the amount of phosphorylation of a biotinylated peptide substrate. Biotinylated peptide substrates were selected from the literature as appropriate for the enzyme being evaluated. […] Assay conditions vary slightly for each protein kinase, for example, insulin receptor kinase requires 10 mM MnCl2 for activity and Calmodulin-dependent protein kinase requires calmodulin and 10 mM CaCl2. These assay conditions are known in the art. The reaction mixture was dispensed into the wells of a streptavidin coated Flashplate and 1 μl drug stock in 100% DMSO was added to a 100 μl reaction volume resulting in a final concentration of 1% DMSO on the reaction. Enzyme was diluted in 50 mM Tris-HCl pH=8.0, 0.1% BSA and add to each well. The reaction was incubated for one hour at 30° C. in the presence of compound. After one hour the reaction mix was aspirated from the plate and the plate was washed with PBS containing 100 mM EDTA. The plate was read on a scintillation counter to determine ^33P-γ-ATP incorporated into the immobilized peptide. Test compounds were assayed in duplicate at 8 concentrations [100 uM, 10 uM, 1 uM, 100 nM, 10 nM, 1 nM, 100 pM, 10 pM]. A maximum and minimum signal for the assay was determined on each plate. The IC50 was calculated from the dose response curve of the percent inhibition of the maximum signal in the assay according to the formula [max signal—background/test compound signal—background (100)=% inhibition] by graphing the percent inhibition against the log concentration of test compound. Known inhibitor compounds appropriate for the kinase being assayed were also included on each plate.
(§3) CDK2 in complex with cyclin A is commercially available (Upstate Biotech, Lake Placid, N.Y.). The CDK4 complex was composed of a mouse CDK4 protein and a mouse Cyclin D1 protein (The mouse CDK4 protein was genetically fused to an N-terminal Flag-epitope tag and the mouse Cyclin D1 protein was fused with an N-terminal AU-1 epitope tag. The genes encoding these proteins were transferred to commercially available baculoviral vectors. The recombinant CDK4/D1 complex was then made by co-infecting commercially available insect cells with viruses carrying these two constructs). […] ERK-1 protein (Discontinued from Calbiochem). EGFR (epidermal growth factor receptor) is purified from human A431 cell membranes (Sigma, St. Louis, Mo., Cat.# E3641).

A further test addresses T2, CDK1:Cyclin-B (Homo sapiens, UniProt P06493).
T2 construct: purchased New England Biolabs 6020; host or cells: insect cells
The test is described as follows: CDK1 Screening Assay. The following applies: Table 1; read-out: CDK1 IC50. As to the method:
as §1, with “100 μl” for “100 μL”, “Next, CDK1:Cyclin-B protein” for “Next, soluble rat tyrosine kinase containing an N-terminal 6×HIS tag”, “of 1” for “of 5”, “30 μl (30” for “30 μL (150”, “The histone-H1” for “The PLC1”, “of CDK1” for “of the VEGF-R”
Assays to test compound inhibition of other kinases were preformed using methods that measure the amount of phosphorylation of a biotinylated peptide substrate. Biotinylated peptide substrates were selected from the literature as appropriate for the enzyme being evaluated. […] Assay conditions vary slightly for each protein kinase, for example, insulin receptor kinase requires 10 mM MnCl2 for activity and Calmodulin-dependent protein kinase requires calmodulin and 10 mM CaCl2. These assay conditions are known in the art. The reaction mixture was dispensed into the wells of a streptavidin coated Flashplate and 1 μl drug stock in 100% DMSO was added to a 100 μl reaction volume resulting in a final concentration of 1% DMSO on the reaction. Enzyme was diluted in 50 mM Tris-HCl pH=8.0, 0.1% BSA and add to each well. The reaction was incubated for one hour at 30° C. in the presence of compound. After one hour the reaction mix was aspirated from the plate and the plate was washed with PBS containing 100 mM EDTA. The plate was read on a scintillation counter to determine ^33P-γ-ATP incorporated into the immobilized peptide. Test compounds were assayed in duplicate at 8 concentrations [100 uM, 10 uM, 1 uM, 100 nM, 10 nM, 1 nM, 100 pM, 10 pM]. A maximum and minimum signal for the assay was determined on each plate. The IC50 was calculated from the dose response curve of the percent inhibition of the maximum signal in the assay according to the formula [max signal—background/test compound signal—background (100)=% inhibition] by graphing the percent inhibition against the log concentration of test compound. Known inhibitor compounds appropriate for the kinase being assayed were also included on each plate. […]

Test [2] deals with T3, HER2 (human epidermal growth factor receptor-2) (Homo sapiens, UniProt P04626).
T3 construct: begins at amino acid 676 followed by the remainder of the HER2 cytoplasmic domain; polyhistidine (N)
T3 sequence (P04626 676-1255 limits assumed): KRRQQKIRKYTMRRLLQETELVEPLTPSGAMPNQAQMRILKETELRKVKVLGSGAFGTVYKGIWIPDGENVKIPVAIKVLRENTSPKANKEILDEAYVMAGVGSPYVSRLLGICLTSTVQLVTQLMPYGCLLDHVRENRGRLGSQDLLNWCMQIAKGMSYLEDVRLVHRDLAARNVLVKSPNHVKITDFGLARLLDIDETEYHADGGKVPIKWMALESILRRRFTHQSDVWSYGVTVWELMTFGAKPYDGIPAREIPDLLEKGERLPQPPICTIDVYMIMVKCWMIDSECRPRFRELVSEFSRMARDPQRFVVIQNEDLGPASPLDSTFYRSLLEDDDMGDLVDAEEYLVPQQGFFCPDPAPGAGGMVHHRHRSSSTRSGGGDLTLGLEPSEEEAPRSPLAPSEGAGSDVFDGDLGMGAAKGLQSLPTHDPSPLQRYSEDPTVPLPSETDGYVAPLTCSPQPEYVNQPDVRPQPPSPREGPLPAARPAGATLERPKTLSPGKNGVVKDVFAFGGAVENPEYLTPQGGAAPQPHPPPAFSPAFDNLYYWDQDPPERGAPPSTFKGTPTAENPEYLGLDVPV
The test is described as follows: Kinase Selectivity Assay HER2. To be noted: Table 1; read-out: HER2 IC50. As to the method: as §2, §3

Molecules are shown by their SMILES. A value given as a limit tells only on which side of the number the result lay.

T1 sequence (O08775 786-1343): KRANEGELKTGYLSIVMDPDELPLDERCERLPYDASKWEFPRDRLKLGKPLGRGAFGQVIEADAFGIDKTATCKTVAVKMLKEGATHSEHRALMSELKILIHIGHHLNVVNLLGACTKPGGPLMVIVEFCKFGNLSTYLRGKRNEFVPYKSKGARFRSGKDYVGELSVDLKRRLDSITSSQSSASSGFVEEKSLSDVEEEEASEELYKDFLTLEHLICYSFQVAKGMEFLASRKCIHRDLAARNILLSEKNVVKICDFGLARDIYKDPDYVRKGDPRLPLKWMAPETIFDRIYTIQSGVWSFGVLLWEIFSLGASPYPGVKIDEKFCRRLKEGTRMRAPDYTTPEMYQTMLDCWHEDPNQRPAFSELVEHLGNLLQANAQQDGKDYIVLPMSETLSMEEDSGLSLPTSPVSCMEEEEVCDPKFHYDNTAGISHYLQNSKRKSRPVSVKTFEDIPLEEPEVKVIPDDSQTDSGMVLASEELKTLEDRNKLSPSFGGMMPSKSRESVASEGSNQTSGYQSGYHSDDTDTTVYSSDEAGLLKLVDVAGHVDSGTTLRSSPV
T2 sequence (P06493 whole entry): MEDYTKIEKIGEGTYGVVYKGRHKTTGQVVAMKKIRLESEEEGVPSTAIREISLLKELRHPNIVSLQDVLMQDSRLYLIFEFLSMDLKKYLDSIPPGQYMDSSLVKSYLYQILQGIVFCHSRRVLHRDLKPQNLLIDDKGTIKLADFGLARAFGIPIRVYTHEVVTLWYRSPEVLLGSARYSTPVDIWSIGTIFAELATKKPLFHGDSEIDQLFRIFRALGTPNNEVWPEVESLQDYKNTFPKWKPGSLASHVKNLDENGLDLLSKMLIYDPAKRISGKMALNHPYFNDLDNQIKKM
T2 sequence (P14635 whole entry partner): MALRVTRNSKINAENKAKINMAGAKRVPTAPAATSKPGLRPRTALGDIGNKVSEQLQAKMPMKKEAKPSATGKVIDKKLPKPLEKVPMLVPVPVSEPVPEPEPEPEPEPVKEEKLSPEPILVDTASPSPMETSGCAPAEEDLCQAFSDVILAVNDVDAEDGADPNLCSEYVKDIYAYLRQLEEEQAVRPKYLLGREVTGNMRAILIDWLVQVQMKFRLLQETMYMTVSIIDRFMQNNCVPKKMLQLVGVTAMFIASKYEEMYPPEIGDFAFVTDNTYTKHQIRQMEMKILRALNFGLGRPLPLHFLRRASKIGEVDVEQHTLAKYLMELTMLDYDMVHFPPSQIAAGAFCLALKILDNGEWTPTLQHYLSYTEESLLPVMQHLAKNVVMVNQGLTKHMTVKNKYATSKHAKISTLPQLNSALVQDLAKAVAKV

Take `Nc1nc(Nc2ccc(S(N)(=O)=O)cc2)nn1C(=O)c1ccc(C#Cc2ccccc2)s1` [Cpd 53, 4-[[5-amino-1-[[5-(phenylethynyl)-2-thienyl]carbonyl]-1H-1,2,4-triazol-3-yl]amino]-benzenesulfonamide]: the IC50 (in test [1]; on CDK1:Cyclin-B; in test [2]) was greater than 1 µM each time.

On to `Nc1nc(Nc2ccc(S(N)(=O)=O)cc2)nn1C(=O)c1c(F)ccc([N+](=O)[O-])c1F` [Cpd 54, 4-[[5-amino-1-(2,6-difluoro-3-nitrobenzoyl)-1H-1,2,4-triazol-3-yl]amino]-benzenesulfonamide], for which the IC50 is 14 µM in test [1], 0.55 µM on CDK1:Cyclin-B and 6.1 µM in test [2].

`Cc1cccc(C)c1C(=O)n1nc(Nc2ccc(S(N)(=O)=O)cc2)nc1N` [Cpd 56, 4-[[5-amino-1-(2,6-dimethylbenzoyl)-1H-1,2,4-triazol-3-yl]amino]-benzenesulfonamide]: the IC50 in test [1] was determined as 20 µM; on CDK1:Cyclin-B it was 0.49 µM; in test [2], 4.17 µM.

Consider `Nc1nc(Nc2ccc(S(=O)(=O)O)cc2)nn1C(=O)c1c(F)cccc1F` [Cpd 59, 4-[[5-amino-1-(2,6-difluorobenzoyl)-1H-1,2,4-triazol-3-yl]amino]-benzenesulfonic Acid], for which the half-maximal inhibitory concentration (IC50) in test [1] stood at 0.92 µM; on CDK1:Cyclin-B, 1.54 µM; in test [2] it was 7.83 µM.

In the case of `Cc1ccc(F)c(C(=O)n2nc(Nc3ccc(S(=O)(=O)O)cc3)nc2N)c1F` [Cpd 60, 4-[[5-amino-1-(2,6-difluoro-3-methylbenzoyl)-1H-1,2,4-triazol-3-yl]amino]-benzenesulfonic acid], the IC50 in test [1] came out at 0.89 µM; on CDK1:Cyclin-B it was 1.37 µM; in test [2] it was 7.46 µM.

With `Cc1ccc(F)c(C(=O)n2nc(Nc3ccc(N4CCN(C)CC4)cc3)nc2N)c1F` [Cpd 72, 1-(2,6-difluoro-3-methylbenzoyl)-N^3-[4-(4-methyl-1-piperazinyl)phenyl]-1H-1,2,4-triazole-3,5-diamine], the IC50 in test [1] was found to be 0.38 µM; on CDK1:Cyclin-B, 1.43 µM; in test [2], 1.49 µM.

`Cc1ccsc1C(=O)n1nc(Nc2ccc(N3CCN(C)CC3)cc2)nc1N` [Cpd 73, N^3-[4-(4-methyl-1-piperazinyl)phenyl]-1-[(3-methyl-2-thienyl)carbonyl]-1H-1,2,4-triazole-3,5-diamine]: the IC50 in test [1] worked out at 0.029 µM; at CDK1:Cyclin-B, 2.2 µM; in test [2], 0.176 µM.

As for `Cc1cc(C)c(C(=O)n2nc(Nc3ccc(N4CCN(C)CC4)cc3)nc2N)s1` [Cpd 74, 1-[(3,5-dimethyl-2-thienyl)carbonyl]-N^3-[4-(4-methyl-1-piperazinyl)phenyl]-1H-1,2,4-triazole-3,5-diamine], the results for the IC50 (in test [1]; at CDK1:Cyclin-B; in test [2]) were 0.021 µM, 0.46 µM and 0.062 µM, respectively.

In the case of `CCc1ccc(C(=O)n2nc(Nc3ccc(N4CCN(C)CC4)cc3)nc2N)s1` [Cpd 75, 1-[(5-ethyl-2-thienyl)carbonyl]-N^3-[4-(4-methyl-1-piperazinyl)phenyl]-1H-1,2,4-triazole-3,5-diamine], the figures for the IC50 (in test [1]; at CDK1:Cyclin-B; in test [2]) were 0.033 µM, 0.52 µM and 0.06 µM, respectively.

Regarding `CCc1ccc(C(=O)n2nc(Nc3ccc(S(=O)(=O)N(C)C)cc3)nc2N)s1` [Cpd 86, 4-[[5-amino-1-[(5-ethyl-2-thienyl)carbonyl]-1H-1,2,4-triazol-3-yl]amino]-N,N-dimethyl-benzenesulfonamide], the IC50 in test [1] amounted to 0.0869 µM; on CDK1:Cyclin-B it was 0.109 µM; in test [2], 0.413 µM.

Consider `Cc1ccsc1C(=O)n1nc(Nc2ccc(S(=O)(=O)N(C)C)cc2)nc1N` [Cpd 87, 4-[[5-amino-1-[(3-methyl-2-thienyl)carbonyl]-1H-1,2,4-triazol-3-yl]amino]-N,N-dimethyl-benzenesulfonamide], for which the IC50 in test [1] came out at 0.0168 µM; on CDK1:Cyclin-B it was 0.217 µM; in test [2], 0.436 µM.

In the case of `Cc1ccc(F)c(C(=O)n2nc(Nc3ccc(S(=O)(=O)N(C)C)cc3)nc2N)c1F` [Cpd 88, 4-[[5-amino-1-(2,6-difluoro-3-methylbenzoyl)-1H-1,2,4-triazol-3-yl]amino]-N,N-dimethyl-benzenesulfonamide], the IC50 in test [1] was 0.965 µM; on CDK1:Cyclin-B, 0.313 µM; in test [2] it was roughly 1 µM.

On to `CN(C)S(=O)(=O)c1ccc(Nc2nc(N)n(C(=O)c3c(F)cccc3F)n2)cc1` [Cpd 89, 4-[[5-amino-1-(2,6-difluorobenzoyl)-1H-1,2,4-triazol-3-yl]amino]-N,N-dimethyl-benzenesulfonamide], for which the concentration for half-maximal inhibition (IC50) in test [1] is 0.598 µM; at CDK1:Cyclin-B, 0.71 µM; in test [2], roughly 10 µM.

Consider `CCc1ccc(C(=O)n2nc(Nc3ccc(-n4ccnc4)cc3)nc2N)s1` [Cpd 90, 1-[(5-ethyl-2-thienyl)carbonyl]-N^3-[4-(1H-imidazol-1-yl)phenyl]-1H-1,2,4-triazole-3,5-diamine], for which the half-maximal inhibitory concentration (IC50) in test [1] was roughly 0.1 µM; on CDK1:Cyclin-B it was roughly 1 µM; in test [2], roughly 0.1 µM.

`Cc1ccsc1C(=O)n1nc(Nc2ccc(-n3ccnc3)cc2)nc1N` [Cpd 91, N^3-[4-(1H-imidazol-1-yl)phenyl]-1-[(3-methyl-2-thienyl)carbonyl]-1H-1,2,4-triazole-3,5-diamine]: the IC50 in test [1] was 0.0736 µM; on CDK1:Cyclin-B, 0.335 µM; in test [2], 0.223 µM.

Consider `Nc1nc(Nc2ccc(-n3ccnc3)cc2)nn1C(=O)c1c(F)cccc1F` [Cpd 93, 1-(2,6-difluorobenzoyl)-N^3-[4-(1H-imidazol-1-yl)phenyl]-1H-1,2,4-triazole-3,5-diamine], for which the IC50 in test [1] is 0.727 µM; on CDK1:Cyclin-B, 0.452 µM; in test [2], roughly 1 µM.

Broadly, the IC50 is the concentration needed to halve the response being measured.

The record behind these values is patent publication US6924302B2, “Substituted triazole diamine derivatives as kinase inhibitors” (Ortho McNeil Pharmaceutical, Inc., priority 2000, dated 2005).
